This is an account of results in patent US20100216703A1, “Inhibitors of PDE4 and Methods of Use” (THE REGENTS OF THE UNIVERSITY OF CALIFORNIA, priority 2006, published 2010).

Entries after “also recorded” stand apart in the source; their conditions may differ.

Series [1] deals with NIH3T3p75NTR cells. The series can be described thus: Competitive binding cAMP ELISA. It counts as cell-based. Conditions: for intracellular cAMP levels in NIH3T3p75NTR cells: 16 h, PTX 100 ng/ml, IBMX 500 μM, PDE1 inh. 18.7 μM, EHNA 80 μM, trequinsin 100 nM, rolipram 10 μM, PDE5 inh. 23 μM. As for the experimental part: […] fibroblasts or 500,000 SCs were lysed in 0.1 N HCl solution and cAMP was measured using a competitive binding cAMP ELISA (Assay Designs). Cells were treated with 100 ng/ml PTX for 16 h. […] Cells were treated with forskolin in the presence of the inhibitors for 1 h. […] For the qualitative and quantitative PKA assay (Promega), cells were treated with 10 μM forskolin for 30 min, lysed in 1% NP-40 buffer with 150 mM NaCl, 50 mM Tris, and 1 mM EGTA, and protein concentration was determined using the Bradford Assay (Bio-Rad Laboratories). 1 μg was loaded into the PKA assay reaction mix according to the manufacturer's protocol (Promega).

Series [2] has as its system NIH3T3 cells. The series can be described thus: Quantification of tPA activity. It counts as cell-based. The conditions noted are these: 10 μM forskolin 16 h; 200 nM KT5720; IBMX. As for the experimental part: (§1) Quantification of tPA and uPA activity in SC and fibroblast in lysates and supernatants was performed according to the directions of the activity assay kits from American Diagnostica and Chemicon, respectively. To elevate cAMP cells were treated either with 2 mM db-cAMP (Sigma-Aldrich) or with 10 μM forskolin (Sigma-Aldrich) for 16 h. To block PKA activity, cells were treated with 200 nM KT5720 (Calbiochem).

In series [3] the test system is NIH3T3p75NTR cells. The series can be described thus: Quantification of tPA activity. It counts as cell-based. Conditions: 10 μM forskolin 16 h; 200 nM KT5720; IBMX; rolipram. On the procedure: as §1
Series [4] deals with NIH3T3 cells. The series can be described thus: RT-PCR / real-time PCR of tPA and PAI-1 RNA. In kind it is cell-based. As for the experimental part:
RT-PCR was performed as described previously (Akassoglou et al., 2002). Primers for tPA, uPA, and PAI-1 genes were used as described previously (Yamamoto and Loskutoff, 1996). Real-time PCR was performed using the Opticon DNA Engine 2 (MJ Research) and the Quantitect SYBR Green PCR kit (QIAGEN). Results were analyzed with Opticon 2 software using the comparative Ct method as described previously (Livak and Schmittgen, 2001). Data were expressed as ΔΔCt for the tPA gene normalized against GAPDH.

The test system of series [5] is NIH3T3p75NTR cells. Put plainly: Fibrin degradation assay on 3D fibrin gel. It counts as cell-based. Conditions: 2 mM db-cAMP. On the procedure:
as §1
(§2) Coating with fibrin was prepared as described previously (Lansink et al., 1998). To quantitate fibrin degradation, the supernatant was aspirated and the remaining gel was weighed using an analytical balance. Decrease of gel weight corresponded to increased fibrin gel degradation.

The target in a further series is T1, tPA (Mus musculus, UniProt P11214).
T1 construct: from tissue; host or cells: crushed sciatic nerve of p75NTR-/- mice (C57Bl/6 background)
T1 sequence (P11214 33-559): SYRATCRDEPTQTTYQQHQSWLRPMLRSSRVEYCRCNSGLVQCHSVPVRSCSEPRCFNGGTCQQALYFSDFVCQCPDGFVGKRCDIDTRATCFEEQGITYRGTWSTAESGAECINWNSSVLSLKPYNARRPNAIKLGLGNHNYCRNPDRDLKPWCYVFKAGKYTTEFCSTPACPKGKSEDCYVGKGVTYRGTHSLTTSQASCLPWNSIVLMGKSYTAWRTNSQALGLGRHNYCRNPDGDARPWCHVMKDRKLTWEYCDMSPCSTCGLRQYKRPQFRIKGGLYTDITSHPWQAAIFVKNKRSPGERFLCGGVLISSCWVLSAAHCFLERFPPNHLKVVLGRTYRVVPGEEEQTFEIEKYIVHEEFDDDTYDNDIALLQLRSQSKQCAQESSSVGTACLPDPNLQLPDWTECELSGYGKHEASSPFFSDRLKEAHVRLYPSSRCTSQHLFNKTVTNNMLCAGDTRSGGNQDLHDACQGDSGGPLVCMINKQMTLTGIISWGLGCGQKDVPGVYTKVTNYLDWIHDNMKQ
The series can be described thus: In situ zymography of crushed sciatic nerve. In kind it is biochemical. The conditions noted are these: injured sciatic nerve of p75NTR−/− mice, in the presence of plasminogen. On the procedure: In situ zymographies were performed as described previously (Akassoglou et al., 2000). Quantification of in situ zymographies was performed by measuring the area of the lytic zone surrounding each nerve, and dividing that value by the area of the nerve. Images were collected after 8 h of incubation for the sciatic nerve and 4 h of incubation for the lung. For cell zymographies, cultures were washed four times with PBS/BSA and overlaid with 200 μl of Dulbecco's […] medium containing 1% LMP agarose, 2.5% boiled nonfat milk, and 25 μg/ml human plasminogen. The overlay was allowed to harden, and plates were incubated in a cell culture incubator at 37° C. Pictures of lytic zones were taken using an inverted microscope under dark field (Carl Zeiss Microlmaging, Inc.).

Series [6] concerns NIH3T3 cells. The series can be described thus: Fibrin degradation assay on 3D fibrin gel. In kind it is cell-based. As for the experimental part: as §2
The subject of a further series is wt and p75NTR−/− SCs. Put plainly: Quantification of tPA activity in primary Schwann cells. The conditions noted are these: 10 μM forskolin, 100 ng/ml NGF, 50 ng/ml BDNF, 16 h. It counts as cell-based, mouse. As for the experimental part: as §1
Murine SCs were isolated as described previously (Syroid et al., 2000). NIH3T3 or HEK293 cells were cotransfected either with p75NTR FL, ICD or deletion constructs, and PDE4A5 cDNAs using Lipofectamine 2000 (Invitrogen) as described in the Results section. CGNs were isolated from P10 animals (Yamashita and Tohyama, 2003). CGNs were lysed immediately for co-IP, without plating. siRNA directed against p75NTR (Dharmacon; SMART Pool reagent, Cat. M-080041-00; Cat. M-009340) was transfected into SCs and NIH3T3p75NTR cells using Dharmafect (Dharmacon).

In series [7] the target is p75 neurotrophin receptor (p75NTR), stably expressed in NIH3T3p75NTR cells.

As for `CCCCCC[C@@H]([C@@H](C)O)n1cnc2c(N)ncnc21` (racemic) [EHNA, erythro-9-(2-Hydroxy-3-nonyl)adenine], in the series with NIH3T3p75NTR cells [1], the “intracellular cAMP levels in NIH3T3p75NTR cells” value was “only IBMX (P<0.0001) and rolipram (P<0.0001) increase”.
As for `COc1ccc2ncnc(NCc3ccc4c(c3)OCO4)c2c1` [4-{[3′,4′-(Methylenedioxy)benzyl]amino}-6-methoxyquinazoline], the “intracellular cAMP levels in NIH3T3p75NTR cells” value in the series on NIH3T3p75NTR cells [1] was “only IBMX (P<0.0001) and rolipram (P<0.0001) increase”.
As for `COCc1nc2c([nH]1)c(=O)n(C)c(=O)n2CC(C)C` [8-Methoxymethyl-IBMX, 8-methoxymethyl-3-isobutyl-1-methylxanthine], the “intracellular cAMP levels in NIH3T3p75NTR cells” value in the series on NIH3T3p75NTR cells [1] was “only IBMX (P<0.0001) and rolipram (P<0.0001) increase”.
For `CCCCCCOC(=O)[C@]1(O)C[C@@H]2O[C@@]1(C)n1c3ccccc3c3c4c(c5c6ccccc6n2c5c31)C(=O)NC4` [KT5720], the “tPA activity in NIH3T3 cells” value with NIH3T3 cells [2] is recorded as “decrease of tPA activity; also recorded: decreases tPA activity”. Further, the “tPA activity in NIH3T3p75NTR cells” value in the series with NIH3T3p75NTR cells [3] was “decrease of tPA activity”. In addition, the “tPA mRNA in NIH3T3 cells” value in the series on NIH3T3 cells [4] was “decreases tPA transcript; also recorded: decreases tPA RNA”.
For the molecule `CCCC(=O)Nc1ncnc2c1ncn2[C@@H]1O[C@@H]2COP(=O)(O)O[C@H]2[C@H]1OC(=O)CCC` [db-cAMP, dibutyryl-cAMP], the “fibrinolysis in NIH3T3p75NTR cells” value with NIH3T3p75NTR cells [5] is given as “induces fibrinolysis; also recorded: overcomes the inhibitory effect of p75NTR”.
For `Cl.Cl.N=C(N)c1ccc(C=C2CCCCC(=Cc3ccc(C(=N)N)cc3)C2=O)cc1` [tPASTOP], on tPA, the “proteolytic activity (in situ zymography)” value is reported as “blocks proteolytic activity”.
In the case of `COc1cc2c(cc1OC)-c1c/c(=N\c3c(C)cc(C)cc3C)n(C)c(=O)n1CC2` [trequinsin], the “intracellular cAMP levels in NIH3T3p75NTR cells” value with NIH3T3p75NTR cells [1] was “only IBMX (P<0.0001) and rolipram (P<0.0001) increase”.
On to Aprotinin, for which, in the series on NIH3T3 cells [6], the “fibrin degradation by NIH3T3 cells” value is given as “completely inhibits fibrin degradation”.
In the case of NGF: nerve growth factor, the “tPA activity in SCs” value in the series on wt and p75NTR−/− SCs is reported as “do not affect activity of tPA; also recorded: has no effect on tPA”. Besides, in the series on NIH3T3p75NTR cells [1] (100 ng/ml NGF, 50 ng/ml BDNF, 750 ng/ml FcTrkB, 1.35 ug/ml Fcp75NTR, 1 h), the “intracellular cAMP levels in NIH3T3p75NTR cells, neurotrophins or their inhibition” value is recorded as “does not affect the p75NTR-mediated suppression of cAMP”.
Regarding pertussis toxin [PTX], the “intracellular cAMP levels in NIH3T3p75NTR cells” value in the series on NIH3T3p75NTR cells [1] is “does not rescue the p75NTR-mediated down-regulation of cAMP; also recorded: only IBMX (P<0.0001) and rolipram (P<0.0001) increase”.

B1: BDNF: Brainderived neurotrophic factor (protein, UniProt P23560 19-247, looked up)
Neurotrophic factor BDNF …: APMKEANIRGQGGLAYPGVRTHGTLESVNGPKAGSRGLTSLADTFEHVIEELLDEDQKVRPNEENNKDADLYTSRVMLSSQVPLEPPLLFLLEEYKNYLDAANMSMRVRRHSDPARRGELSVCDSISEWVTAADKKTAVDMSGGTVTVLEKVPVSKGQLKQYFYETKCNPMGYTKEGCRGIDKRHWNSQCRTTQSYVRALTMDSKKRIGWRFIRIDTSCVCTLTIKRGR
With B1, the “tPA activity in SCs” value in the series with wt and p75NTR−/− SCs was “do not affect activity of tPA; also recorded: has no effect on tPA”.

B2: endogenous PDE4A5 (PDE4A, 109 kD) of NIH3T3p75NTR cells (protein)
chain: MEPPAAPSERSLSLSLPGPREGQATLKPPPQHLWRQPRTPIRIQQRGYSDSAERSEPERSPHRPIERADAVDTGDRPGLRTTRMSWPSSFHGTGTGGGSSRRLEAENGPTPSPGRSPLDSQASPGLMLHAGAATSQRRESFLYRSDSDYDMSPKTMSRNSSVASEAHGEDLIVTPFAQVLASLRNVRSNFSLLTNVPIPSNKRSPLGGPPSVCKATLSEETCQQLARETLEELDWCLEQLETMQTYRSVSEMASHKFKRMLNRELTHLSEMSRSGNQVSEYISNTFLDKQHEVEIPSPTPRQRPFQQPPPAAVQQAQPMSQITGLKKLVHTGSLNINVPRFGVKTDQEDLLAQELENLSKWGLNIFCVSEYAGGRSLSCIMYTIFQERDLLKKFHIPVDTMMTYMLTLEDHYHADVAYHNSLHAADVLQSTHVLLATPALDAVFTDLEILAALFAAAIHDVDHPGVSNQFLINTNSELALMYNDESVLENHHLAVGFKLLQEENCDIFQNLSKRQRQSLRKMVIDMVLATDMSKHMTLLADLKTMVETKKVTSSGVLLLDNYSDRIQVLRNMVHCADLSNPTKPLELYRQWTDRIMAEFFQQGDRERERGMEISPMCDKHTASVEKSQVGFIDYIVHPLWETWADLVHPDAQDILDTLEDNRDWYHSAIRQSPSPTLEEEPGVLSDPALPDKFQFELTLEEEDEEDSLEVPGLPCTEETLLAPHDTRAQAMEQSKVKGQSPAVVEVAESLKQETASAHGAPEESAEAVGHSFSLETSILPDLRTLSPSEEAQGLLGLPSMAAEVEAPRDHLAAMRACSACSGTSGDNSAVISAPGRWGSGGDPA
Consider B2, for which, in [7], the “FRET emission ratio change of pm-AKAR2.2 in response to forskolin (membrane-associated PKA activity)” value was “NIH3T3p75NTR cells show an attenuated response, revealing reduced PKA activity at the plasma membrane”.
